Source: PubChem BioAssay (NCI)
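Cultured in 96-well plates, cells were exposed to test compound for 48 hours across five concentrations. At the TGI there is no net growth.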

Tests used:
Experiment in all cases: inhibition of tumour cell growth, NCI panel, 48 h
786-0 renal = test system: 786-0 renal
A549 NSCLC = test system: A549 NSCLC
ACHN renal = test system: ACHN renal
CAKI-1 renal = test system: CAKI-1 renal
CCRF-CEM leukemia = test system: CCRF-CEM leukemia
COLO 205 colon = test system: COLO 205 colon
DLD-1 colon = test system: DLD-1 colon
DMS 114 small cell lung = test system: DMS 114 small cell lung
DMS 273 small cell lung = test system: DMS 273 small cell lung
EKVX NSCLC = test system: EKVX NSCLC
HCC-2998 colon = test system: HCC-2998 colon
HCT-116 colon = test system: HCT-116 colon
HCT-15 colon = test system: HCT-15 colon
HL-60(TB) leukemia = test system: HL-60(TB) leukemia
HOP-62 NSCLC = test system: HOP-62 NSCLC
HOP-92 NSCLC = test system: HOP-92 NSCLC
HT29 colon = test system: HT29 colon
IGROV1 ovarian = test system: IGROV1 ovarian
K-562 leukemia = test system: K-562 leukemia
KM12 colon = test system: KM12 colon
KM20L2 colon = test system: KM20L2 colon
LOX IMVI melanoma = test system: LOX IMVI melanoma
LXFL 529 NSCLC = test system: LXFL 529 NSCLC
M14 melanoma = test system: M14 melanoma
M19-MEL melanoma = test system: M19-MEL melanoma
MALME-3M melanoma = test system: MALME-3M melanoma
MOLT-4 leukemia = test system: MOLT-4 leukemia
NCI-H226 lung = test system: NCI-H226 lung
NCI-H23 lung = test system: NCI-H23 lung
NCI-H460 lung = test system: NCI-H460 lung
NCI-H522 lung = test system: NCI-H522 lung
OVCAR-3 ovarian = test system: OVCAR-3 ovarian
OVCAR-4 ovarian = test system: OVCAR-4 ovarian
OVCAR-5 ovarian = test system: OVCAR-5 ovarian
OVCAR-8 ovarian = test system: OVCAR-8 ovarian
RPMI-8226 leukemia = test system: RPMI-8226 leukemia
SF-268 CNS = test system: SF-268 CNS
SF-295 CNS = test system: SF-295 CNS
SF-539 CNS = test system: SF-539 CNS
SK-MEL-2 melanoma = test system: SK-MEL-2 melanoma
SK-MEL-28 melanoma = test system: SK-MEL-28 melanoma
SK-MEL-5 melanoma = test system: SK-MEL-5 melanoma
SK-OV-3 ovarian = test system: SK-OV-3 ovarian
SN12C renal = test system: SN12C renal
SNB-19 CNS = test system: SNB-19 CNS
SNB-75 CNS = test system: SNB-75 CNS
SNB-78 CNS = test system: SNB-78 CNS
SW-620 colon = test system: SW-620 colon
TK-10 renal = test system: TK-10 renal
U251 CNS = test system: U251 CNS
UACC-257 melanoma = test system: UACC-257 melanoma
UACC-62 melanoma = test system: UACC-62 melanoma
UO-31 renal = test system: UO-31 renal
XF 498 CNS = test system: XF 498 CNS
A498 renal = test system: A498 renal
HOP-18 NSCLC = test system: HOP-18 NSCLC
RXF 393 renal = test system: RXF 393 renal
SR leukemia = test system: SR leukemia

## Nc1ccc(C(=O)NN2C(=O)C(Cl)C2c2ccccc2O)cc1 (centres undefined)
786-0 renal
  TGI: > 100 µM
A549 NSCLC
  TGI: > 100 µM
ACHN renal
  TGI: > 100 µM
CAKI-1 renal
  TGI: > 100 µM
CCRF-CEM leukemia
  TGI: > 100 µM
COLO 205 colon
  TGI: > 100 µM
DLD-1 colon
  TGI: > 100 µM
DMS 114 small cell lung
  TGI: 79.6 µM
DMS 273 small cell lung
  TGI: > 100 µM
EKVX NSCLC
  TGI: > 100 µM
HCC-2998 colon
  TGI: 98.5 µM
HCT-116 colon
  TGI: > 100 µM
HCT-15 colon
  TGI: > 100 µM
HL-60(TB) leukemia
  TGI: 48 µM
HOP-62 NSCLC
  TGI: > 100 µM
HOP-92 NSCLC
  TGI: > 100 µM
HT29 colon
  TGI: > 100 µM
IGROV1 ovarian
  TGI: > 100 µM
K-562 leukemia
  TGI: > 100 µM
KM12 colon
  TGI: > 100 µM
KM20L2 colon
  TGI: > 100 µM
LOX IMVI melanoma
  TGI: > 100 µM
LXFL 529 NSCLC
  TGI: > 100 µM
M14 melanoma
  TGI: > 100 µM
M19-MEL melanoma
  TGI: > 100 µM
MALME-3M melanoma
  TGI: > 100 µM
MOLT-4 leukemia
  TGI: > 100 µM
NCI-H226 lung
  TGI: > 100 µM
NCI-H23 lung
  TGI: > 100 µM
NCI-H460 lung
  TGI: > 100 µM
NCI-H522 lung
  TGI: > 100 µM
OVCAR-3 ovarian
  TGI: > 100 µM
OVCAR-4 ovarian
  TGI: > 100 µM
OVCAR-5 ovarian
  TGI: > 100 µM
OVCAR-8 ovarian
  TGI: > 100 µM
RPMI-8226 leukemia
  TGI: > 100 µM
SF-268 CNS
  TGI: > 100 µM
SF-295 CNS
  TGI: > 100 µM
SF-539 CNS
  TGI: > 100 µM
SK-MEL-2 melanoma
  TGI: > 100 µM
SK-MEL-28 melanoma
  TGI: > 100 µM
SK-MEL-5 melanoma
  TGI: > 100 µM
SK-OV-3 ovarian
  TGI: > 100 µM
SN12C renal
  TGI: > 100 µM
SNB-19 CNS
  TGI: > 100 µM
SNB-75 CNS
  TGI: > 100 µM
SNB-78 CNS
  TGI: > 100 µM
SW-620 colon
  TGI: > 100 µM
TK-10 renal
  TGI: > 100 µM
U251 CNS
  TGI: > 100 µM
UACC-257 melanoma
  TGI: > 100 µM
UACC-62 melanoma
  TGI: > 100 µM
UO-31 renal
  TGI: 75.2 µM
XF 498 CNS
  TGI: > 100 µM

## CC1OC(O)CC(OC(=O)c2ccccc2)C1OC(=O)c1ccccc1 (centres undefined)
786-0 renal
  TGI: 82.7 µM
A498 renal
  TGI: > 100 µM
A549 NSCLC
  TGI: > 100 µM
ACHN renal
  TGI: > 100 µM
CAKI-1 renal
  TGI: 63.1 µM
CCRF-CEM leukemia
  TGI: 38.2 µM
COLO 205 colon
  TGI: 80.9 µM
DLD-1 colon
  TGI: 28.4 µM
DMS 273 small cell lung
  TGI: 29.5 µM
HCC-2998 colon
  TGI: > 100 µM
HCT-116 colon
  TGI: 23.3 µM
HCT-15 colon
  TGI: 29.3 µM
HL-60(TB) leukemia
  TGI: 36 µM
HOP-18 NSCLC
  TGI: 56.8 µM
HOP-62 NSCLC
  TGI: > 100 µM
HOP-92 NSCLC
  TGI: 35 µM
HT29 colon
  TGI: 42.2 µM
IGROV1 ovarian
  TGI: > 100 µM
K-562 leukemia
  TGI: 57.5 µM
KM12 colon
  TGI: > 100 µM
KM20L2 colon
  TGI: > 100 µM
LOX IMVI melanoma
  TGI: 23.1 µM
LXFL 529 NSCLC
  TGI: 29.8 µM
M14 melanoma
  TGI: 30.3 µM
M19-MEL melanoma
  TGI: 31.6 µM
MALME-3M melanoma
  TGI: 30.2 µM
MOLT-4 leukemia
  TGI: 39 µM
NCI-H23 lung
  TGI: 30.8 µM
NCI-H460 lung
  TGI: > 100 µM
NCI-H522 lung
  TGI: > 100 µM
OVCAR-3 ovarian
  TGI: 33.4 µM
OVCAR-4 ovarian
  TGI: 28.8 µM
OVCAR-5 ovarian
  TGI: > 100 µM
OVCAR-8 ovarian
  TGI: 31.6 µM
RPMI-8226 leukemia
  TGI: 31.8 µM
RXF 393 renal
  TGI: 39.3 µM
SF-268 CNS
  TGI: 30 µM
SF-295 CNS
  TGI: > 100 µM
SF-539 CNS
  TGI: 31.7 µM
SK-MEL-28 melanoma
  TGI: 29.6 µM
SK-MEL-5 melanoma
  TGI: 31.4 µM
SN12C renal
  TGI: 32.3 µM
SNB-19 CNS
  TGI: > 100 µM
SR leukemia
  TGI: 37.1 µM
SW-620 colon
  TGI: 26.7 µM
TK-10 renal
  TGI: > 100 µM
U251 CNS
  TGI: > 100 µM
UACC-257 melanoma
  TGI: 29.4 µM
UACC-62 melanoma
  TGI: 31.5 µM
XF 498 CNS
  TGI: 34.6 µM
